Source: patent US9701690B2, “Myrtocomuloacetalone 1 as an anti-inflammatory agent” (priority 2014, dated 2017)
Converted amounts (≈) assume the structure as drawn. Read-outs that look alike come from different tables or passages of the source.

Legend:
T-cells = test: T-cell proliferation; type: cell-based
Excerpt: T Lymphocytes, the major key detector cells of the adaptive immune responses, differ entirely from those of innate immunity that includes free a radical generation system. However, the effector pathways overlap to a great extent. Therefore, they can play a leading role in the development of autoimmune disease related to oxidative stress.

superoxide (O−2) = test: Oxidative burst, superoxide production; type: cell-based; conditions: for Oxidative burst % Inhibition O−2: 25 μg/Ml
ROS (HOCl) = test: Oxidative burst, ROS (HOCl) production (zymosan induced); type: cell-based
MDBK kidney cells = test: MTT assay, MDBK kidney cell proliferation; type: cell-based; conditions: 48 hours
Description: FIG. 5 depicts the effect of myrtocomuloacetalone 1 on MDBK kidney cell proliferation by MTT assay. MDBK Kidney cell line was incubated in the presence of three concentrations 25, 5 and 0.5 μg/mL of test compounds or without addition of compounds (− test control) and in presence of cytotoxic drug cyclohexamide (+ control).
(§1) The effect of myrtocomuloacetalone 1 on cell viability was determined in MDBK, CC1, J774 and 3T3 Fibrobast cells and the IC50 for each line was calculated.

[1] = test system: 3T3 mouse fibroblast cells; test: MTT assay, 3T3 fibroblast cell proliferation; type: cell-based; conditions: 48 hours
Description: FIG. 7 depicts the effect of myrtocomuloacetalone 1 on 3T3 mouse fibrobast cell proliferation by MTT assay. Fibrobast cell line was incubated in the presence of three concentrations (25, 5 and 0.5 μg/mL) of test compounds or without addition of compounds (−ye control) and in presence of cytotoxic drug cyclohexamide (+ control).
as §1

H2O2 = test: Oxidative burst, hydrogen peroxide production; type: cell-based
p38 = test: LPS activated transcription factor p38; type: cell-based
[2] = test system: NF kappa B p65 in J774 cells; test: LPS induced nuclear translocation of p65 subunit of NF kappa B; type: cell-based, mouse
Description: FIG. 3 depicts the LPS induced nuclear translocation of p65 subunit of NF kappa B in J774 cells. Effect of myrtocomuloacetalone 1 at concentration 25 μg/mL. Arrows show no transcription factor inside nucleus at 25 μg/mL, whereas 5, 0.5 μg/mL has no effect on nuclear factor translocation as compared to positive control. The cells were examined at 20× magnification under TRITC and DAPI channel using a Nikon TE-2000 epifluorescence microscope. Merging was done using Adobe Photoshop.

[3] = test system: basal Nitric Oxide, U138MG cells; test: Basal level of Nitric Oxide in neuronal cells (griess reagent); type: cell-based; conditions: 48 hours
Description: FIG. 1 depicts the effect of myrtocomuloacetalone 1 on basal level of Nitric Oxide neuronal cells. U138MG cells were incubated in presence and absence of compound for 48 hours and supernatant was analyzed for the level of the presence of nitrite by griess reagent.
Under normal physiological conditions, Nitric Oxide is necessary for normal vascular function because of its effect as a neurotransmitter. This kind of Nitric Oxide is called a basal level of Nitric Oxide, which is released by neuronal and endothelial synthases (Hattori, Kasai, and Gross 2004). The test compound […] in the basal level of Nitric Oxide released by the neuronal cell (FIG. 1).

[4] = test system: intracellular ROS in J774.2 cells; test: Intracellular oxidative stress, DCFH dye, fluorescent microscopy; type: cell-based, mouse; conditions: PMA stimulant
Excerpt: FIG. 4 depicts the intracellular oxidative stress examined by fluorescent microscopy. Mouse macrophage J774.2 cells, treated with phorbol myristate acetate (PMA) alone: positive control or in combination with compound. The cells were examined at 20× magnification under a green channel. Bright field images showing the total number of cells present in the same field were obtained under phase contrast at 20× magnification. Each image is representative of 3 individual experiments.
In order to validate the above mentioned results, we also investigated the effect of compound on intracellular ROS levels by using 2′,7′-dichlorfluorescein (DCFH) dye, which mainly measures the H2O2 released into the intracellular environment. We employed PMA as a stimulant since PMA is known to activate the NADPH oxidase via protein kinase C pathway.

[5] = test system: Nitric Oxide release by J774.2 macrophages; test: LPS-induced inflammatory Nitric Oxide release by macrophages (griess reagent); type: cell-based, mouse; conditions: J774.2, LPS, 48 hours
Description: FIG. 2 depicts the effect of myrtocomuloacetalone 1 on inflammatory Nitric Oxide release by macrophages in response to LPS, macrophages. J774.2 cells were incubated in the presence or absence of compound for 48 hours and supernatant was detected for the presence of nitrite by griess reagent. The result was compared with known inhibitor of Nitric Oxide; LNMA (NG Monomethyl L arginine).
During inflammation, the inducible form of nitric oxide synthase gets activated and causes the robust generation of Nitric Oxide that causes excessive vasodilation which results in hypotension and septic shock. In contrast, Nitric Oxide combined with superoxide (ROS generated during phagocytosis) leads to ONOO generation and eventually reduces the bioavailability of basal Nitric Oxide and therefore normal function of neurotransition will be halted. This effect mainly leads to vasoconstriction, hypertension and atherosclerosis. Current studies reveal that the compound is an inhibitor to the inflammatory Nitric Oxide released by the activated macrophages in cell culture supernatant. It is found to be a highly significant inhibitor Nitric Oxide with an IC50 value of <1 μg/mL (see FIG. 2).

J774.2 macrophages = test: MTT assay, J774.2 macrophage cell proliferation; type: cell-based, mouse; conditions: 48 hours
Description: FIG. 8 depicts the effect of myrtocomuloacetalone 1 on J774.2 mouse macrophage cell proliferation by MIT assay. Macrophage cell line was incubated in the presence of three concentrations (25, 5 and 0.5 μg/mL) of test compounds or without addition of compounds (−ve control).
as §1

CC1 liver cells = test: MTT assay, CC1 liver cell proliferation; type: cell-based, Wistar rat; conditions: 48 hours
Description: FIG. 6 depicts the effect of myrtocomuloacetalone 1 on Wistar rat CC1 liver cell proliferation by MTT assay. CC1 liver cellline was incubated in the presence of three concentrations 25, 5 and 0.5 μg/mL of test compounds or without addition of compounds (−ve control) and in the presence of cytotoxic drug cyclohexamide (+ control).
as §1

For C[C@]12C=CC(=O)C=C1CC[C@@H]1[C@@H]2[C@@H](O)C[C@@]2(C)[C@H]1CC[C@]2(O)C(=O)CO [Prednisolone, reference compound], the IC50 (T-cells; T-cell) was under 0.625 µg/mL.

With c1ccc([I+]c2ccccc2)cc1 [Diphenyliodonium, reference compound] the “Oxidative burst % Inhibition O−2” value (superoxide (O−2)) was 95%.

Molecule CC(C)Cc1ccc(C(C)C(=O)O)cc1 (stereo not shown) [Ibuprofen, reference compound] has an IC50 (ROS (HOCl); oxidative burst) of 11.7 ± 1.8 µg/mL (≈ 56.7 µM).

“myrtocomuloacetalone 1 [Myrtocomuloacetalone (1)]” was tested, and the “Cell viability IC50, MDBK kidney cells” value (MDBK kidney cells) was 4.5 ± 1.1 µg/mL, the “Cell viability IC50, 3T3 mouse fibroblasts” value [1] was 6.53 ± 1.2 µg/mL and the “Oxidative burst % Inhibition O−2” value (superoxide (O−2)) was 42.5%. For the same molecule, the “Effect on superoxide production” value (superoxide (O−2); oxidative burst) was “profound effect”, the “Oxidative burst % Inhibition H2O2” value (H2O2; 25 μg/Ml) was 53% and the “Effect on hydrogen peroxide production” value (H2O2; oxidative burst) was “profound effect”. For the same molecule, the “Effect on transcription factor p38 activated by LPS” value (p38) was “remain unaffected”, the “Nuclear translocation of NF κB” value ([2]; 25 μg/mL) was “completely inhibits” and the “Nuclear translocation of NF κB” value ([2]; 5, 0.5 μg/mL) was “no effect”. The “T-Cell proliferation (IC50)” value (T-cells) was under 0.5 µg/mL, the “T-Cell proliferation (IC50)” value (T-cells; listed as myrtocomuloacetalone 1) was under 0.5 µg/mL and the “Effect on basal level of Nitric Oxide released by neuronal cell” value [3] was “does change”. For the same molecule, the “PMA induced intracellular ROS generation” value [4] was “inhibitory effects”, the “Inhibition of inflammatory Nitric Oxide released by activated macrophages, IC50” value [5] was under 1 µg/mL and the “Cell viability IC50, J774.2 macrophages” value (J774.2 macrophages) was 5 ± 0.8 µg/mL. For the same molecule, the “Cell viability IC50, CC1 liver cells” value (CC1 liver cells) was 4.6 ± 0.7 µg/mL, the “Effect on HOCl production” value (ROS (HOCl); oxidative burst) was “no effect” and the “ROS (HOCl) (IC50)” value (ROS (HOCl); oxidative burst) was over 100 µg/mL. For the same molecule, the “Zymosan induced ROS production of mainly HOCl” value (ROS (HOCl); zymosan induced) was “not”.

For C[C@@H]1C[C@@H]([C@H](O)CC2CC(=O)NC(=O)C2)C(=O)[C@@H](C)C1 [cycoxehamide, reference compound], the “Cell viability IC50, MDBK kidney cells” value (MDBK kidney cells) was 1.2 ± 0.4 µg/mL, the “Cell viability IC50, 3T3 mouse fibroblasts” value [1] was 0.13 µg/mL and the “Cell viability IC50, CC1 liver cells” value (CC1 liver cells) was 0.02 ± 0.001 µg/mL.
